Measurements reported in patent publication US20230348516A1, “YKL-40 INHIBITORS AND THEIR THERAPEUTIC APPLICATIONS” (Molecure S.A., priority 2022, published 2023).

Molecular target: YKL-40 and asialofetuin interaction (Homo sapiens, UniProt P36222)
Experiment: Orthogonal YKL-40 AlphaScreen assay using biotinylated asialofetuin (AF-biot)
Assay type: binding

YKL-40 and asialofetuin interaction, sequence (P36222 22-383): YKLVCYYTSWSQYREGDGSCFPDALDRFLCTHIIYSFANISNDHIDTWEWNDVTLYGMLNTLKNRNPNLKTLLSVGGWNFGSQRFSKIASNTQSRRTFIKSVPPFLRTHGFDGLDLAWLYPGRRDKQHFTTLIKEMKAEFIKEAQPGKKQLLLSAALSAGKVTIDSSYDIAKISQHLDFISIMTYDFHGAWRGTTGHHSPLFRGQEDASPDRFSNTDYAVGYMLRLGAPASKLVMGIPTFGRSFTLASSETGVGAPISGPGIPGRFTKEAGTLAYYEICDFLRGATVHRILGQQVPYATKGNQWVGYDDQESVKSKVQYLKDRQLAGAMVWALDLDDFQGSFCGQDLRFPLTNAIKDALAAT

IC50 [µM]	interference with YKL-40 and asialofetuin (triantennary LacNac) interaction [%]	SMILES
0.02		Cc1cc(C2CCC(N3C[C@H](C(=O)O)OC[C@@H]3Cc3ccc(Cl)cc3)CC2)nn1C.O=C(O)C(F)(F)F (single isomer, unassigned) [Example 11, 2,2,2-trifluoroacetate]
	64	Cc1cc(C2CCC(N3C[C@H](C(=O)O)OC[C@@H]3Cc3ccc(Cl)cc3)CC2)nn1C.O=C(O)C(F)(F)F (single isomer, unassigned) [Example 11]
